# Experimental data from patent publication US20220143053A1, “ANTI-MICROBIAL METHODS AND MATERIALS” (priority 2019, published 2022).
# Where two headings read alike, the source gives them in different places.
# What was measured:
# [1] = tested on: methicillin-sensitive Staphylococcus aureus (MSSA, ATCC 12600); assay: Minimum inhibitory concentration (MIC) test, CLSI M07-A10; type: cell-based
# Experimental: (§1) Antibacterial activity of sodium channel blockers (lidocaine, bupivacaine, tetracaine, procaine, prilocaine), NSAIDs (ketorolac and tolfenamic acid), antioxidants (resveratrol and curcumin), and antibiotics (gentamicin and vancomycin) was performed against methicillin-sensitive Staphylococcus aureus (MSSA, ATCC 12600). The bacterial susceptibility tests were conducted as outlined in the Clinical and Laboratory Standard Institute (CLSI) protocol M07-A10. Bacterial suspensions with a concentration of approximately 5*10^5 CFU/ml were prepared in Lysogeny broth and mixed with the tested drugs. […] Minimum bactericidal concentration (MBC) was determined as the minimum concentration of the tested drug needed to kill 99.9% of bacteria (or 3−log 10 reduction). […] The MBC was measured for lidocaine, bupivacaine, ketorolac, and gentamicin.
# [2] = Drug solubility limit in growth medium; type: physicochemical; settings: plasma or biological fluid
# [3] = tested on: methicillin-sensitive S. aureus; settings: cited from earlier work
# [4] = tested on: Bacillus cereus, MSSA, MRSA, Escherichia coli, Klebsiella pneumoniae, Pseudomonas aeruginosa, Enterobacter aerogenes, and Salmonella Choleraesuis; settings: eight listed bacteria; cited from earlier work
# [5] = systemic administration; cited from earlier work
# [6] = tested on: methicillin-sensitive Staphylococcus aureus (MSSA, ATCC 12600); assay: Minimum bactericidal concentration (MBC) test; type: cell-based; settings: MSSA ATCC 12600, kill 99.9% of bacteria
# Experimental: as §1
# [7] = tested on: MSSA (ATCC 14775); assay: Time-kill experiments; type: cell-based, Staphylococcus aureus; settings: between 4 and 24 h
# Experimental: Time-kill curves employing 3 time-points (0, 4, 24 hours) over the period of 24 hours were obtained for characterization of the antibacterial activity of selected combinations against MSSA (ATCC® 14775). Tested combinations of drugs were incubated with 5*10^5 CFU/ml of bacteria in Lysogeny broth at 37° C. At a given time-point, aliquots were collected, and bacterial concentrations were determined using the spread-plate method. The minimum accurately countable concentration was 10^2 CFU/ml. […] The increase of bacterial concentration represented antagonism.
# [8] = Staphylococcus aureus, MSSA ATCC 12600, Lysogeny broth, 24-hour incubation at 37° C., read-out: MIC
molecule,measurement,setting,value
CCCCN1CCCCC1C(=O)Nc1c(C)cccc1C (stereo not shown) [Bupivacaine],MIC,[1]; [8],1880 µg/mL
same,solubility,[2],~15 mg/mL
same,antibacterial effects,[3],measurable antibacterial effects
COc1cc(/C=C/C(=O)CC(=O)/C=C/c2ccc(O)c(OC)c2)ccc1O [Curcumin],MIC,[1]; [8],188 µg/mL
CC(C)Cc1ccc(C(C)C(=O)O)cc1 (stereo not shown) [Ibuprofen],antibacterial activity,[4],measurable antibacterial activity
O=C(c1ccccc1)c1ccc2n1CCC2C(=O)O (stereo not shown) [Ketorolac],MIC,[1]; [8],3120 µg/mL
same,solubility,[2],~18 mg/mL
CCN(CC)CC(=O)Nc1c(C)cccc1C [Lidocaine],MIC,[1]; [8],15600 µg/mL
same,antibacterial effects,[3],measurable antibacterial effects
CCCNC(C)C(=O)Nc1ccccc1C (stereo not shown) [Prilocaine],MIC,[1]; [8],25000 µg/mL
CCN(CC)CCOC(=O)c1ccc(N)cc1 [Procaine],MIC,[1]; [8],100000 µg/mL
Oc1ccc(C=Cc2cc(O)cc(O)c2)cc1 [Resveratrol],MIC,[1]; [8],125 µg/mL
CCCCNc1ccc(C(=O)OCCN(C)C)cc1 [Tetracaine],MIC,[1]; [8],938 µg/mL
Cc1c(Cl)cccc1Nc1ccccc1C(=O)O [Tolfenamic Acid],MIC,[1]; [8],250 µg/mL
CN[C@H](CC(C)C)C(=O)N[C@H]1C(=O)N[C@@H](CC(N)=O)C(=O)N[C@H]2C(=O)N[C@H]3C(=O)N[C@H](C(=O)N[C@H](C(=O)O)c4cc(O)cc(O)c4-c4cc3ccc4O)[C@H](O)c3ccc(c(Cl)c3)Oc3cc2cc(c3O[C@@H]2O[C@H](CO)[C@@H](O)[C@H](O)[C@H]2O[C@H]2C[C@](C)(N)[C@H](O)[C@H](C)O2)Oc2ccc(cc2Cl)[C@H]1O [Vancomycin],MIC,"[1]; Staphylococcus aureus, 24 h",0.625 µg/mL
same,concentration in the bone relative to that in the serum,[5],~20%
CC(=O)Oc1ccccc1C(=O)O [aspirin],antibacterial activity,[4],measurable antibacterial activity
O=C(O)Cc1ccccc1Nc1c(Cl)cccc1Cl [diclofenac],antibacterial activity,[4],measurable antibacterial activity
Cc1cccc(Nc2ccccc2C(=O)O)c1C [mefenamic acid],antibacterial activity,[4],measurable antibacterial activity
Gentamicin,MIC,"[1]; MSSA ATCC 12600, Lysogeny broth, 24-hour incubation at 37° C.",4 µg/mL
same,MBC,[6],2 µg/mL
same,regrowth in time-kill curves,[7],regrowth phase
